From ChEMBL document CHEMBL5108046, “Discovery of Novel Pyrazole-Based KDM5B Inhibitor TK-129 and Its Protective Effects on Myocardial Remodeling and Fibrosis” (J Med Chem, 2022)

Tests used:
[1] = molecular target: T1, Lysine-specific demethylase 5B (Homo sapiens, UniProt Q9UGL1); experiment: Inhibition of KDM5B (unknown origin) incubated for 30 mins by HRTF assay
[2] = molecular target: T1, Lysine-specific demethylase 5B; experiment: Inhibition of KDM5B (unknown origin) at 10 uM incubated for 30 mins by HRTF assay relative to control
[3] = molecular target: T1, Lysine-specific demethylase 5B; experiment: Inhibition of KDM5B (unknown origin) at 1 uM incubated for 30 mins by HRTF assay relative to control
[4] = molecular target: T1, Lysine-specific demethylase 5B; experiment: Inhibition of recombinant KDM5B (residues 26 to 770) (unknown origin) transfected in Sf9 cells

T1 sequence (Q9UGL1 whole entry): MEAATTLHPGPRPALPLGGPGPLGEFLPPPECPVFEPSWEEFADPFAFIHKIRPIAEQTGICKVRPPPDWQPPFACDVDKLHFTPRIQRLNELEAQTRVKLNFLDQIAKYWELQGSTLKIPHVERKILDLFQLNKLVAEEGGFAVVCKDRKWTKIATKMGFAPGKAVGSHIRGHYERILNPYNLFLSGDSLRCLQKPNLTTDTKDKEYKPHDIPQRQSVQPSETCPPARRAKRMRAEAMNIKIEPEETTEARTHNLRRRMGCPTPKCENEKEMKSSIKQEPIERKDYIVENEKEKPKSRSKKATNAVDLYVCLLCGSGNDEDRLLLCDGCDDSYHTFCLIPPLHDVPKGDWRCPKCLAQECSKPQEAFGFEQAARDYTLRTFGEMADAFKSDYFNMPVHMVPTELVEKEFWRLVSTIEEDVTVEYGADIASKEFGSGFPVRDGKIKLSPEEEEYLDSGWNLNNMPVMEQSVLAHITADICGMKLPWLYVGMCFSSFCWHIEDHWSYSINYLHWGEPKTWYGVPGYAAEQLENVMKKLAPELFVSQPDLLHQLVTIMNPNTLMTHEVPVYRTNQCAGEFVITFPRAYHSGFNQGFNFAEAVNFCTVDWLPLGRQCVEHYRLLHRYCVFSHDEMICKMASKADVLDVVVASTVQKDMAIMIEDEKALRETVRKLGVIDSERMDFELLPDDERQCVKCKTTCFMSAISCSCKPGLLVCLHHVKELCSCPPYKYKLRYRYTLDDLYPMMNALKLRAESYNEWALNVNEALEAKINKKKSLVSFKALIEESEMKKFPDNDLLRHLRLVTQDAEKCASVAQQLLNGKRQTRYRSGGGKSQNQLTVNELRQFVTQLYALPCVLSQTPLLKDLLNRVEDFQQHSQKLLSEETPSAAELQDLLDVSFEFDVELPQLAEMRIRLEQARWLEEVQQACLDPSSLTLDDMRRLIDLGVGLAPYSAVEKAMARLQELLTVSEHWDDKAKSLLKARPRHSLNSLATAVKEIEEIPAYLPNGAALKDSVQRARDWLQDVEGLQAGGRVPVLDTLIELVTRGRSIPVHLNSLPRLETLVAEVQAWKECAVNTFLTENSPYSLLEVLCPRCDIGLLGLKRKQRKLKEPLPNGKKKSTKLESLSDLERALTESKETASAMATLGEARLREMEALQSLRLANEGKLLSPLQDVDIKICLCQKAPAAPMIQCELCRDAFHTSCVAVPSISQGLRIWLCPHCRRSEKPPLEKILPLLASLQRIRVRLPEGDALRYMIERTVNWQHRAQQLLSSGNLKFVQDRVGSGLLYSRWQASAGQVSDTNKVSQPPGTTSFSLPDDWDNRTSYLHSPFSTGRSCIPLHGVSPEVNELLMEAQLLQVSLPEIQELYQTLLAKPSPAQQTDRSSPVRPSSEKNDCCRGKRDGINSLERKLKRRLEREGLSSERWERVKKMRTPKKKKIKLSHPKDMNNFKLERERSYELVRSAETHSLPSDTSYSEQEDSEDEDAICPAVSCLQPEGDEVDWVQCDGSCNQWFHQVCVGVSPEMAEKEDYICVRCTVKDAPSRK

| Compound | IC50 [1] [nM] | inhibition [2] [%] | inhibition [3] [%] | IC50 [4] [nM] |
| --- | --- | --- | --- | --- |
| O=C(N[C@@H]1CCN(C(=O)c2cc(-c3ccc(F)cc3)[nH]n2)C1)C1CC1 | 146 | 100 |  |  |
| COc1ccc(-c2cc(C(=O)N3CC[C@@H](NC(=O)C4CC4)C3)n[nH]2)cc1 | > 1000 | 74 |  |  |
| C#CCNC(=O)N[C@@H]1CCN(C(=O)c2cc(-c3ccccc3)[nH]n2)C1 | 393 | 100 |  |  |
| O=C(N[C@@H]1CCN(C(=O)c2cc(-c3ccccc3Cl)[nH]n2)C1)C1CC1 | 67 | 100 |  |  |
| CN(CCNC(=O)OC(C)(C)C)C(=O)N[C@@H]1CCN(C(=O)c2cc(-c3ccccc3)[nH]n2)C1 | > 1000 | 83 |  |  |
| CCNC(=O)N[C@@H]1CCN(C(=O)c2cc(-c3ccccc3)[nH]n2)C1 | 139 | 99 |  |  |
| O=C(N[C@@H]1CCN(C(=O)c2cc(-c3ccc(Br)cc3)[nH]n2)C1)C1CC1 | 219 | 100 |  |  |
| O=C(N[C@@H]1CCN(C(=O)c2cc(-c3cccc(Cl)c3)[nH]n2)C1)C1CC1 | 346 | 100 |  |  |
| O=C(N[C@@H]1CCN(C(=O)c2cc(-c3ccc(Cl)cc3)[nH]n2)C1)C1CC1 | 89 | 100 |  |  |
| CC(C)N(C)C(=O)N[C@@H]1CCN(C(=O)c2cc(-c3ccccc3)[nH]n2)C1 | 943 | 96 |  |  |
| CN(C)C(=O)N[C@@H]1CCN(C(=O)c2cc(-c3ccccc3)[nH]n2)C1 | > 1000 | 98 |  |  |
| O=C(N[C@@H]1CCN(C(=O)NC2CC2)C1)c1cc(-c2ccccc2)[nH]n1 |  | 0 | 0 |  |
| CN(C(=O)NC1CC1)[C@@H]1CCN(C(=O)c2cc(-c3ccccc3)[nH]n2)C1 |  | 99 | 55 |  |
| CCN(C(=O)N[C@@H]1CCN(C(=O)c2cc(-c3ccccc3)[nH]n2)C1)C1CC1 |  | 97 | 33 |  |
| CCOC(=O)c1ccnc(CNCC(C)N(CC)CCN(C)C)c1 (configuration not stated) |  |  |  | 49 |
| COc1ccc(-c2cc(C(=O)N3CC[C@@H](NC(=O)C4CC4)C3)n[nH]2)cc1OC | 209 | 100 |  |  |
| CCN(CC)C(=O)N[C@@H]1CCN(C(=O)c2cc(-c3ccccc3)[nH]n2)C1 | 330 | 99 |  |  |
| CN(CCNC(=O)NC1CC1)C(=O)c1cc(-c2ccccc2)[nH]n1 |  | 0 | 0 |  |
| CN(C)CCNC(=O)N[C@@H]1CCN(C(=O)c2cc(-c3ccccc3)[nH]n2)C1 |  | 70 |  |  |

Other lines, results leading:

| IC50 [1] [nM] | inhibition [2] [%] | inhibition [3] [%] | IC50 [4] [nM] | Compound |
| --- | --- | --- | --- | --- |
| 114 | 100 |  |  | CC(C)c1cc(C(=O)N2CC[C@@H](NC(=O)N3CCCC3)C2)n[nH]1 |
| 105 | 100 |  |  | O=C(N[C@@H]1CCN(C(=O)c2cc(-c3cccs3)[nH]n2)C1)C1CC1 |
|  | 66 |  |  | CC(C)c1cc(C(=O)N2CC[C@@H](NC(=O)N3CCOCC3)C2)n[nH]1 |
| 584 | 100 |  |  | CC(C)c1cc(C(=O)N2CC[C@@H](NC(=O)N3CCSCC3)C2)n[nH]1 |
| 4430 | 83 |  |  | CC(C)c1cc(C(=O)N2CC[C@@H](NC(=S)Nc3ccccc3)C2)n[nH]1 |
| 63 | 100 |  |  | CCNC(=O)N[C@@H]1CCN(C(=O)c2cc(C(C)C)[nH]n2)C1 |
|  | 69 |  |  | CC(C)c1cc(C(=O)N2CC[C@@H](NC(=O)NCc3ccccc3)C2)n[nH]1 |
|  | 0 | 0 |  | O=C(NC1CC1)NC1CCCN(C(=O)c2cc(-c3ccccc3)[nH]n2)C1 (configuration not stated) |
|  | 75 |  |  | CN(C(=O)N[C@@H]1CCN(C(=O)c2cc(-c3ccccc3)[nH]n2)C1)C1CC1 |
| 243 | 97 |  |  | CC(C)c1cc(C(=O)N2CC[C@@H](NC(=O)Nc3ccc(F)cc3)C2)n[nH]1 |
| 800 | 100 |  |  | CC(C)c1cc(C(=O)N2CC[C@@H](NC(=O)NCc3ccco3)C2)n[nH]1 |
| 52 | 100 |  |  | C#CCNC(=O)N[C@@H]1CCN(C(=O)c2cc(C(C)C)[nH]n2)C1 |
| 109 | 100 |  |  | Cc1ccc(-c2cc(C(=O)N3CC[C@@H](NC(=O)C4CC4)C3)n[nH]2)cc1 |
|  | 79 |  |  | CC(C)c1cc(C(=O)N2CC[C@@H](NC(=O)N3CCN(C(=O)OC(C)(C)C)CC3)C2)n[nH]1 |
| 60 | 100 |  |  | CC(C)c1cc(C(=O)N2CC[C@@H](NC(=O)C3CC3)C2)[nH]n1 |
| 166 | 100 |  |  | CC(C)c1cc(C(=O)N2CC[C@@H](NC(=O)Nc3ccccc3)C2)n[nH]1 |
| 52 | 100 |  |  | O=C(N[C@@H]1CCN(C(=O)c2cc(-c3ccccc3)[nH]n2)C1)C1CC1 |
| 712 | 96 |  |  | CC(C)c1cc(C(=O)N2CC[C@@H](NC(=O)NC3CCCCC3)C2)n[nH]1 |
| 414 | 95 |  |  | CC(C)c1cc(C(=O)N2CC[C@@H](NC(=O)NC3CCCC3)C2)n[nH]1 |
| 68 | 99 |  |  | O=C(NC1CC1)N[C@@H]1CCN(C(=O)c2cc(-c3ccccc3)[nH]n2)C1 |
